In ChEMBL document CHEMBL1909046, “DrugMatrix in vitro pharmacology data”:

Legend:
[1] = biological target: Aldo-keto reductase family 1 member B1 (Rattus norvegicus, UniProt P07943); format: tissue-based, Lens of camera-type eye;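 further: inhibition of aldose reductase enzyme activity, measured with DL-glyceraldehyde as the substrate; in other assays of this panel Not Active means under 50% inhibition at 10 µM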
[2] = biological target: T1, Alpha-2C adrenergic receptor (Homo sapiens, UniProt P18825); experiment: DRUGMATRIX: Adrenergic Alpha-2C radioligand binding (ligand: [3H] MK-912); format: cell membranes, Sf9, Membrane; conditions: for Ki: read-out: Ki
T1 sequence (P18825 whole entry): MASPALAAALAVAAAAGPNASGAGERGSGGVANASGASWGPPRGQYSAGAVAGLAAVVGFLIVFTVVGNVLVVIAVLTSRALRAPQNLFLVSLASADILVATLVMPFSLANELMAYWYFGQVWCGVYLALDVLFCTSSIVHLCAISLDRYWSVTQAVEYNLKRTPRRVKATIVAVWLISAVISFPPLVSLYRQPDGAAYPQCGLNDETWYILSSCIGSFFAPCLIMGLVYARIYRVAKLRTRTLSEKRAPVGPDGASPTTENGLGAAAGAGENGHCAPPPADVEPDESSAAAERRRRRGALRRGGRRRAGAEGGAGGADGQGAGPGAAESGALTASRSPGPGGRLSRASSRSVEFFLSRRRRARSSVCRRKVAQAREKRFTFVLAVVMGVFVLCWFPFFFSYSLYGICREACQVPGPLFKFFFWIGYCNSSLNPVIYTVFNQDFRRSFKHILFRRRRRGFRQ

[3] = DRUGMATRIX: Potassium Channel [KATP] radioligand binding (ligand: [3H] Glyburide); format: cell membranes, Membrane; conditions: hit-t15; Not Active = under 50% inhibition at 10 µM
[4] = DRUGMATRIX: Nicotinic Acetylcholine radioligand binding (ligand: [125I] Epibatidine); format: cell membranes, Membrane; conditions: imr-32; Not Active = under 50% inhibition at 10 µM
[5] = biological target: T2, Muscarinic acetylcholine receptor M4 (Homo sapiens, UniProt P08173); format: cell membranes, CHO-K1, Membrane; conditions: for Ki: read-out: Ki; on all read-outs here: in other assays of this panel Not Active means under 50% inhibition at 10 µM
T2 sequence (P08173 whole entry): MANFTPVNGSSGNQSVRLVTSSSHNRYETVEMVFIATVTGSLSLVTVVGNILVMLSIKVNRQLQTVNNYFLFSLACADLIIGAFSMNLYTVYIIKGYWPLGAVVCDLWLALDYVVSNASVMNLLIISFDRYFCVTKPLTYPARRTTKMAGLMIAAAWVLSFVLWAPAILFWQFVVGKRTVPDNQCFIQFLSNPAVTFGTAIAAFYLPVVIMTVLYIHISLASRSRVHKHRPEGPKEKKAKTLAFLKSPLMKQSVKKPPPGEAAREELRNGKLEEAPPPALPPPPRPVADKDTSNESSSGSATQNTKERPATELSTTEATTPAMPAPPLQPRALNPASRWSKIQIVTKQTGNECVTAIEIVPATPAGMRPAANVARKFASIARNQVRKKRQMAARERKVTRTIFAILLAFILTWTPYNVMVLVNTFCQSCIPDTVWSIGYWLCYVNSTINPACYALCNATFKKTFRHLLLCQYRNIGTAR

Cathepsin G = biological target: T3, Cathepsin G (Homo sapiens, UniProt P08311); format: tissue-based; conditions: neutrophil;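 further: inhibition of Cathepsin G enzyme activity, tested on an AMC-conjugated peptide substrate; in other assays of this panel Not Active means under 50% inhibition at 10 µM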
T3 sequence (P08311 whole entry): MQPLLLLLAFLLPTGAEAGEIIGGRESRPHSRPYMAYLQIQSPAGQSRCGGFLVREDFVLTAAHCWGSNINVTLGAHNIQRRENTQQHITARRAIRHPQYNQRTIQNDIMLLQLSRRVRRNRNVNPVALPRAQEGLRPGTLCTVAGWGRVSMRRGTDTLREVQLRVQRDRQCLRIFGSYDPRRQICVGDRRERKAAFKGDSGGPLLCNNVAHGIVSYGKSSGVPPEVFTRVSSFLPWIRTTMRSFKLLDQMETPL

[6] = DRUGMATRIX: Glutamate, NMDA, Agonism radioligand binding (ligand: [3H] CGP-39653); format: cell membranes, Rattus norvegicus, Wistar, Cerebral cortex, Membrane; conditions: Not Active = under 50% inhibition at 10 µM

Structure (SMILES) | IC50 [1] | IC50 ([2]; sf9) | IC50 [3] | Ki [3] | IC50 [4] | Ki [4] | IC50 ([5]; cho-k1) | IC50 (Cathepsin G) | IC50 [6] | Ki [6] | IC50 ([5]; read-out: IC50) [µM] | Ki [5] [µM] | IC50 ([2]; read-out: IC50) [µM] | Ki [2] [µM]
Cc1c(C)c2c(c(C)c1O)CCC(C)(CN1CCN(c3cc(N4CCCC4)nc(N4CCCC4)n3)CC1)O2 (stereo not drawn) | Not Active | Not Active | Not Active | Not Active | Not Active | Not Active | Not Active | Not Active | Not Active | Not Active | – | – | – | –
COc1ccc(CCN(C)CCCC(C#N)(c2ccc(OC)c(OC)c2)C(C)C)cc1OC (stereo not drawn) | Not Active | Not Active | Not Active | Not Active | Not Active | Not Active | Not Active | Not Active | Not Active | Not Active | – | – | – | –
CC(C)Cc1ccc([C@@H](C)C(=O)O)cc1 [(R)-IBUPROPHEN] | Not Active | Not Active | Not Active | Not Active | Not Active | Not Active | Not Active | Not Active | Not Active | Not Active | – | – | – | –
CN(C)CCOC(c1ccccc1)c1ccccc1 [DIPHENHYDRAMINE] | Not Active | Not Active | – | – | – | – | – | Not Active | – | – | – | – | – | –
Clc1ccc(COC(Cn2ccnc2)c2ccc(Cl)cc2Cl)cc1 (stereo not drawn) [ECONAZOLE] | Not Active | Not Active | – | – | – | – | – | Not Active | – | – | 2.12 | 0.296 | – | –
CCN(CC)CCOc1ccc(/C(=C(/Cl)c2ccccc2)c2ccccc2)cc1 [ENCLOMIPHENE] | Not Active | – | – | – | – | – | – | Not Active | – | – | 1.65 | 0.23 | 1.48 | 0.215
Fc1ccc(C(c2ccc(F)cc2)N2CCN(C/C=C/c3ccccc3)CC2)cc1 [FLUNARIZINE] | Not Active | – | – | – | – | – | – | Not Active | – | – | 5.66 | 0.789 | 0.222 | 0.032
CNCCC(Oc1ccc(C(F)(F)F)cc1)c1ccccc1 (stereo not drawn) [FLUOXETINE] | Not Active | Not Active | – | – | – | – | Not Active | Not Active | – | – | – | – | – | –
Cc1ccc(NC(=O)c2ccc(CN3CCN(C)CC3)cc2)cc1Nc1nccc(-c2cccnc2)n1 [IMATINIB] | Not Active | Not Active | – | – | – | – | Not Active | Not Active | – | – | – | – | – | –
CC(C)Oc1ccc2c(=O)c(-c3ccccc3)coc2c1 [IPRIFLAVONE] | Not Active | Not Active | Not Active | Not Active | Not Active | Not Active | Not Active | Not Active | Not Active | Not Active | – | – | – | –
CC(C)NCC(O)c1ccc(O)c(O)c1 (stereo not drawn) [ISOPROTERENOL] | Not Active | Not Active | Not Active | Not Active | Not Active | Not Active | Not Active | Not Active | Not Active | Not Active | – | – | – | –
CNC1(c2ccccc2Cl)CCCCC1=O (stereo not drawn) [KETAMINE] | Not Active | Not Active | Not Active | Not Active | Not Active | Not Active | Not Active | Not Active | Not Active | Not Active | – | – | – | –
N#Cc1ccc(C(c2ccc(C#N)cc2)n2cncn2)cc1 [LETROZOLE] | Not Active | Not Active | Not Active | Not Active | Not Active | Not Active | Not Active | Not Active | Not Active | Not Active | – | – | – | –
CCN1CCC[C@H]1CNC(=O)c1cc(S(N)(=O)=O)ccc1OC [LEVOSULPIRIDE] | Not Active | Not Active | Not Active | Not Active | Not Active | Not Active | Not Active | Not Active | Not Active | Not Active | – | – | – | –
CCN(CC)CC(=O)Nc1c(C)cccc1C [LIDOCAINE] | Not Active | Not Active | Not Active | Not Active | Not Active | Not Active | Not Active | Not Active | Not Active | Not Active | – | – | – | –
O=C1Nc2ccc(Cl)cc2C(c2ccccc2Cl)=NC1O (stereo not drawn) [LORAZEPAM] | Not Active | Not Active | Not Active | Not Active | Not Active | Not Active | Not Active | Not Active | Not Active | Not Active | – | – | – | –
CO[C@@H]1[C@@H](OC)[C@H](C)[C@@](O)(CC(=O)O)O[C@H]1[C@H](C)[C@H]1O[C@@]2(CC[C@@](C)([C@H]3CC[C@@](C)([C@@H]4O[C@@H]([C@H]5O[C@](C)(O)[C@H](C)C[C@@H]5C)C[C@@H]4O[C@@H]4C[C@H](OC)[C@@H](OC)[C@H](C)O4)O3)O2)C[C@H](O)[C@H]1C [MADURAMICIN ACID] | Not Active | – | Not Active | Not Active | Not Active | Not Active | Not Active | Not Active | Not Active | Not Active | – | – | 1.61 | 0.234
COc1c2occc2cc2ccc(=O)oc12 [METHOXSALEN] | Not Active | Not Active | Not Active | Not Active | Not Active | Not Active | Not Active | Not Active | Not Active | Not Active | – | – | – | –
C[C@H]1C[C@@H]2[C@H]([C@@H](O)C[C@@]3(C)[C@H]2CC[C@]3(O)C(=O)CO)[C@@]2(C)C=CC(=O)C=C12 [METHYLPREDNISOLONE] | Not Active | Not Active | Not Active | Not Active | Not Active | Not Active | Not Active | Not Active | Not Active | Not Active | – | – | – | –
Cc1cccc(C)c1OCC(C)N (stereo not drawn) [MEXILETINE] | Not Active | Not Active | Not Active | Not Active | Not Active | Not Active | Not Active | Not Active | Not Active | Not Active | – | – | – | –
Nc1cc(N2CCCCC2)nc(N)[n+]1[O-] [MINOXIDIL] | Not Active | Not Active | Not Active | Not Active | Not Active | Not Active | Not Active | Not Active | Not Active | Not Active | – | – | – | –
CO[C@H]1/C=C/O[C@@]2(C)Oc3c(C)c(O)c4c(O)c(c(/C=N/N5CCN(C6CCCC6)CC5)c(O)c4c3C2=O)NC(=O)/C(C)=C\C=C\[C@H](C)[C@H](O)[C@@H](C)[C@@H](O)[C@@H](C)[C@H](OC(C)=O)[C@@H]1C [RIFAPENTINE] | Not Active | Not Active | Not Active | Not Active | Not Active | Not Active | Not Active | Not Active | Not Active | Not Active | – | – | – | –
CCCCOc1cc(CC2CNC(=O)N2)ccc1OC (stereo not drawn) [RO-201724] | Not Active | Not Active | Not Active | Not Active | Not Active | Not Active | Not Active | Not Active | Not Active | Not Active | – | – | – | –
CN[C@H]1CC[C@@H](c2ccc(Cl)c(Cl)c2)c2ccccc21 [SERTRALINE] | Not Active | – | – | – | – | – | – | Not Active | – | – | 2.63 | 0.367 | – | –
O.O.O.O.O.O.[Cl-].[Cl-].[Sr+2] [STRONTIUM CHLORIDE HEXAHYDRATE] | Not Active | Not Active | – | – | Not Active | Not Active | Not Active | Not Active | Not Active | Not Active | – | – | – | –
COc1cc2nc(N3CCN(C(=O)C4CCCO4)CC3)nc(N)c2cc1OC (stereo not drawn) [TERAZOSIN] | Not Active | – | – | – | Not Active | Not Active | Not Active | Not Active | Not Active | Not Active | – | – | – | –
